Source: patent US20250270180A1, “MEK INHIBITORS AND THERAPEUTIC USES THEREOF” (Immuneering Corporation, priority 2020, published 2025)
Like-named read-outs stand apart in the source and are kept apart here.

How the values were obtained:
[1] = Plasma stability, beagle dog; format: in vitro ADME; conditions: 2 μM
[2] = molecular target: CYP450 2C19 (Homo sapiens, UniProt P33261); assay: CYP450 panel, 2C19; conditions: 10 μM; substrate mephenytoin
[3] = molecular target: hERG Channel (Homo sapiens, UniProt Q12809); assay: cell-based
Chain of hERG Channel (Q12809 whole entry): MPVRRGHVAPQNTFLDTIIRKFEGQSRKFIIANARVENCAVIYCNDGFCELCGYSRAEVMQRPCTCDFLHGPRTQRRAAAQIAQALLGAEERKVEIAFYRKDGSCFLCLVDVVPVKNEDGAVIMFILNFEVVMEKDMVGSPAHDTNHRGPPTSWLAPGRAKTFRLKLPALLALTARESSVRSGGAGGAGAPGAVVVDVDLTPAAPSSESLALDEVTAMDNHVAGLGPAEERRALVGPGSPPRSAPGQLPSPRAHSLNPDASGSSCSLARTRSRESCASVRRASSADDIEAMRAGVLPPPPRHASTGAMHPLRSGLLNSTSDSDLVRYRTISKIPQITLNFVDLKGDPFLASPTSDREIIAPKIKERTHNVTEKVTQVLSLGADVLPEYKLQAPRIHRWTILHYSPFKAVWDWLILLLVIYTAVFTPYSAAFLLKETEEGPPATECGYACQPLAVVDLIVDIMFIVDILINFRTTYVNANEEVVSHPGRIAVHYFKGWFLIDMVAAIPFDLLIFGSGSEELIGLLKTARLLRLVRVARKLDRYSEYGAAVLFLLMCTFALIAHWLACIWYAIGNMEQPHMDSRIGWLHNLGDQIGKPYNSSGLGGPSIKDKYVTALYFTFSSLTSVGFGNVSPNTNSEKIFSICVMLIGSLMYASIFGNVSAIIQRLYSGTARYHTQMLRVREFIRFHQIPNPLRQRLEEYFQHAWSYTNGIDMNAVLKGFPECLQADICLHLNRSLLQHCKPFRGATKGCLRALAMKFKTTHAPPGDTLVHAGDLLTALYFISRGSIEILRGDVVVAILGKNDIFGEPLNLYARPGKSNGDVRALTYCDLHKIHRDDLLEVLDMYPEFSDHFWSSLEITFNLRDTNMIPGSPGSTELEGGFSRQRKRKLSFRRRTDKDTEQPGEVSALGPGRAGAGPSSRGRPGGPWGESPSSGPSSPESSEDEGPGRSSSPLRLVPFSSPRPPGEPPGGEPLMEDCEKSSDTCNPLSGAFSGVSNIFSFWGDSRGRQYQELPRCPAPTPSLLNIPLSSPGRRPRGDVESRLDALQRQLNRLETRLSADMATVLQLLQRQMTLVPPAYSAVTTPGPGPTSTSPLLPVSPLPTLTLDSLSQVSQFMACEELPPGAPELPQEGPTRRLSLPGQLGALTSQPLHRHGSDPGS

[4] = molecular target: T1, CYP450 1A2 (Homo sapiens, UniProt P05177); assay: CYP450 panel, 1A2; format: in vitro ADME; conditions: 10 μM; substrate phenacetin
T1 sequence (P05177 1-516): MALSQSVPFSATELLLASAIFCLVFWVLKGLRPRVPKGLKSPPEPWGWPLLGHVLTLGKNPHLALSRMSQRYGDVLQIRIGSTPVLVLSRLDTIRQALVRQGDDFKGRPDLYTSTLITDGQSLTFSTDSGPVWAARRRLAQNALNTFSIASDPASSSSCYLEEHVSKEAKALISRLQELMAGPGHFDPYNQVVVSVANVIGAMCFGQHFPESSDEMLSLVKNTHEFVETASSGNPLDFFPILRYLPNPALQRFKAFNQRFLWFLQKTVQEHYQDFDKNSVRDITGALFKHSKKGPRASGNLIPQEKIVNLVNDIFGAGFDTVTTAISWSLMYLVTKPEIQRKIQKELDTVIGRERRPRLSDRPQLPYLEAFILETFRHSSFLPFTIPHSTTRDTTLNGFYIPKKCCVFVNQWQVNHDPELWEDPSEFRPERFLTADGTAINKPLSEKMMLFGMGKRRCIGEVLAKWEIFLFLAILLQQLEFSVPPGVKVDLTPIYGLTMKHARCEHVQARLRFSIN

[5] = molecular target: T2, CYP450 2B6 (Homo sapiens, UniProt P20813); assay: CYP450 panel, 2B6; conditions: 10 μM; substrate bupropion
T2 sequence (P20813 1-491): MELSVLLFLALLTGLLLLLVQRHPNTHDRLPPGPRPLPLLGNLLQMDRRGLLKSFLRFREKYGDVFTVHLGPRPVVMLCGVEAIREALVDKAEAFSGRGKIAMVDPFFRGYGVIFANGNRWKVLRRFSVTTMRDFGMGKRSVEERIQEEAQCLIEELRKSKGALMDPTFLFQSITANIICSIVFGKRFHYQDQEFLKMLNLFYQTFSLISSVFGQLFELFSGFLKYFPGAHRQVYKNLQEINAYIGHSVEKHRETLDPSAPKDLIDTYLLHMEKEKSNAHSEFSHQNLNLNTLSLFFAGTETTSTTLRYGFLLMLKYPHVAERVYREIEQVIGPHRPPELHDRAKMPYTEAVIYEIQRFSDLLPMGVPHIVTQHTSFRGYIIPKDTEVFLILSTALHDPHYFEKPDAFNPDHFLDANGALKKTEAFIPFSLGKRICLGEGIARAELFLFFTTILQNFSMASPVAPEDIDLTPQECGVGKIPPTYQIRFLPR

[6] = test system: A549 CRAF BP (MEK phosphorylation); assay: A549-CRAF BP 100 nM, 2 h (pMEK); format: cell-based; conditions: Homo sapiens, A549, 2 h, phospho:total ratio normalized to DMSO control
Experimental: (§1) A549 or […] cells were treated in duplicate for two hours with compounds at varying concentrations. After two hours, the cells were lysed, snap frozen, and stored at −80° C. After storage, the lysate was quantified with the Bradford assay. Before the lysates were prepared to run on the Jess, the lysates were diluted to 1 mg/mL for pERK analysis and 1.5 mg/mL pMEK analysis using quantitative Western blotting. ERK and MEK phosphorylation levels were estimated by taking the ratio of phospho-protein to total protein and normalizing to the DMSO control. The results of this study are described in Tables 14-16.

[7] = molecular target: T3, CYP450 2C8 (Homo sapiens, UniProt P10632); assay: CYP450 panel, 2C8; conditions: 10 μM; substrate amodiaquine
T3 sequence (P10632 1-490): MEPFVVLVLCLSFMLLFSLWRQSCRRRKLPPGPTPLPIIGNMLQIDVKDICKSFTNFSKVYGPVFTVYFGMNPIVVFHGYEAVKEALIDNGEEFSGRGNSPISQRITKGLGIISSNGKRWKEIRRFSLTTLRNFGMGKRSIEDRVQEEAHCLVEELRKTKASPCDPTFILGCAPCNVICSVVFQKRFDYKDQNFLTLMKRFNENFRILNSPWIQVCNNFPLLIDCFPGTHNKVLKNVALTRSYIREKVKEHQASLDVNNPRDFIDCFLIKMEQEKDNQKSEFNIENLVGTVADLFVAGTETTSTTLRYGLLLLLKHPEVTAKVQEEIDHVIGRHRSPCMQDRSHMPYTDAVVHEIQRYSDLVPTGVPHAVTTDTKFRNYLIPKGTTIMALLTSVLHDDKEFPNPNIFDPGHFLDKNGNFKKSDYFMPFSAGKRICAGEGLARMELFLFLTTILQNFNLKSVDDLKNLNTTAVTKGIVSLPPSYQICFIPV

[8] = molecular target: CYP450 2C9 (Homo sapiens, UniProt P11712); assay: CYP450 panel, 2C9; conditions: 10 μM; substrate Diclofenac
Chain of CYP450 2C9 (P11712 whole entry): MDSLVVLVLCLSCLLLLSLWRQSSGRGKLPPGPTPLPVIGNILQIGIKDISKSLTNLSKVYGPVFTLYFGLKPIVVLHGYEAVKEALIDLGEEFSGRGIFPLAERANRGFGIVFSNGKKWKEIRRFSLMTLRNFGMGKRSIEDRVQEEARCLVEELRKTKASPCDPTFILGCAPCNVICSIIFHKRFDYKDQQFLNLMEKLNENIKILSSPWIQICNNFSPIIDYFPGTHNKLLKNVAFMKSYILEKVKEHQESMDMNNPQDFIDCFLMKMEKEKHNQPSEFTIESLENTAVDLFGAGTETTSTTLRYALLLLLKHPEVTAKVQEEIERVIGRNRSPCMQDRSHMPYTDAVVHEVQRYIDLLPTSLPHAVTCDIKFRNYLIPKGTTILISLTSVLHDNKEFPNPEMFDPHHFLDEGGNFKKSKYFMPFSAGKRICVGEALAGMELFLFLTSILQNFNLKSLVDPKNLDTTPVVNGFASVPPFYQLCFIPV

[9] = Plasma stability, human; format: in vitro ADME; conditions: 2 μM
[10] = Absorption & efflux: Caco-2 permeability; conditions: human
[11] = molecular target: CYP450 3A4 (Homo sapiens, UniProt P08684); assay: CYP450 panel, 3A4; conditions: 10 μM; for 3A4*: substrate midazolam; for 3A4^: substrate testosterone
Chain of CYP450 3A4 (P08684 whole entry): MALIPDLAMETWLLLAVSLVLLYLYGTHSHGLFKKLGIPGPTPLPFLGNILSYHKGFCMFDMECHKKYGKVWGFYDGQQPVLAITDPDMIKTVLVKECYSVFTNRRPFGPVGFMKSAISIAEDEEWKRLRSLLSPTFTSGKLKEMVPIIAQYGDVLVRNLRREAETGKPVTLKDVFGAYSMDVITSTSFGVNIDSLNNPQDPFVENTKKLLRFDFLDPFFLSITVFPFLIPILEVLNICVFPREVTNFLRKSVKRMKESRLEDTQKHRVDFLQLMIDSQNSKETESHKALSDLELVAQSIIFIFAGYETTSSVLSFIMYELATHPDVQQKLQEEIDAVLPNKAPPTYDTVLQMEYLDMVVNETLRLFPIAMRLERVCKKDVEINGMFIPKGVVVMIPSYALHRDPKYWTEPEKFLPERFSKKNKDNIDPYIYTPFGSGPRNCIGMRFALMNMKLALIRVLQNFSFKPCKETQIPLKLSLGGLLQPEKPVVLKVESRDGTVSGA

[12] = Plasma stability, CD-1 mouse; format: in vitro ADME; conditions: 2 μM
[13] = Microsome stability, human; format: in vitro ADME; conditions: microsomes, 2 μM
[14] = Microsome stability, beagle dog; format: in vitro ADME; conditions: microsomes, 2 μM
[15] = test system: A549 pERK; assay: A549-pERK, 2 h (quantitative Western, Jess); format: cell-based; conditions: Homo sapiens, A549, 2 h, 10 nM, phospho:total ratio normalized to DMSO control
Experimental: as §1

[16] = molecular target: CYP450 2D6 (Homo sapiens, UniProt P10635); assay: CYP450 panel, 2D6; conditions: 10 μM; substrate dextromethophan
Chain of CYP450 2D6 (P10635 whole entry): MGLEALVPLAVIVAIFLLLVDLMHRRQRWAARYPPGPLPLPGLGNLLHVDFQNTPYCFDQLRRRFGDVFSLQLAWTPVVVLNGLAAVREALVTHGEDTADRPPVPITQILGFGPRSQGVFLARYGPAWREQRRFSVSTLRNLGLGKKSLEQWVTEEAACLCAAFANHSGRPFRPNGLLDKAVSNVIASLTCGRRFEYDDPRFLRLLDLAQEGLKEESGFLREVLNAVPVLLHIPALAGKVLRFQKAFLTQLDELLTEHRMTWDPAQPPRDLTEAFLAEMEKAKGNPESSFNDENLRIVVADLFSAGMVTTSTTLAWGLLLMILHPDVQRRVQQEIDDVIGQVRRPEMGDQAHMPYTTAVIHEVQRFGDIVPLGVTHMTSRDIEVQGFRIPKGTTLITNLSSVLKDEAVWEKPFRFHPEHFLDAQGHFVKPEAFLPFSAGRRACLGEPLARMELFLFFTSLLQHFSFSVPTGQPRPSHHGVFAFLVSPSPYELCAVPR

[17] = Microsome stability, CD-1 mouse; conditions: microsomes, 2 μM
[18] = Pharmacokinetics, single dose, 2-hour tissue levels in Colon26 tumor bearing mice; format: in vivo; conditions: single dose 100 mg/kg p.o., 2-hour post dose; for concentration at 2 h: female, athymic BALB/c nude or BALB/c, mouse, po
Experimental: Female mice (either athymic BALC/c nude, or BALB/c mice) were inoculated with a single subcutaneous injection of 0.2 ml of mouse Colon-26 cell suspension (1×10^5 cells per animal) in the inguinal region. Colon26 (C26) tumor bearing mice received a single dose (3 mice/treatment) of vehicle (10% DMSO/90% [20% SBE-β-CD in saline], pH 5) containing compounds at 100 mg/kg by gavage (p.o.) and 2-hour post dose humanely euthanized.
Blood was obtained through cardiac puncture into K+EDTA tubes, mixed by inversion and centrifuged to obtain the plasma. Tissues were excised, cleaned of surrounding tissues. All samples immediately snap frozen in liquid N2 prior to LC-MS/MS analysis (using Waters HSS T3 2.1×50 mm (1.8 um) LC column, and an API-6500 Electrospray MS unit).

[19] = Caco-2, A-B Permeability Ranking
[20] = Caco-2, Mean Papp A-B (10^−6 cm/s)

Chain of CYP450 2C19 (P33261 whole entry): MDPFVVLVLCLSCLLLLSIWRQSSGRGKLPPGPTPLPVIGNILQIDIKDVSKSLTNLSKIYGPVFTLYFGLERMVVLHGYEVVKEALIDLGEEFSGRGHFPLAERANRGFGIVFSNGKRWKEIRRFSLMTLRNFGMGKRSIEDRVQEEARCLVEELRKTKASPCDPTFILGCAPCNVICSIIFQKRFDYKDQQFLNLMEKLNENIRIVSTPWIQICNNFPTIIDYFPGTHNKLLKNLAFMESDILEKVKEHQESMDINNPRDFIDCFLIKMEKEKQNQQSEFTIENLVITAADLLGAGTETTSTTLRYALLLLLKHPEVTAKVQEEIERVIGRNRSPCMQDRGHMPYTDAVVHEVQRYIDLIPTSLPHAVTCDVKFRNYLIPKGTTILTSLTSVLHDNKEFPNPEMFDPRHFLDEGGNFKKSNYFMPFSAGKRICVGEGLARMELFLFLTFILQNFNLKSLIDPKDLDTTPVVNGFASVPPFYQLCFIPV

| SMILES | Beagle Dog (% Reamining @2 hour) [1] [%] | 2C19* [2] | IC50 [3] [µM] | 1A2* [4] | 2B6* [5] | 2C8* [7] | 2C9* [8] | Human (% Reamining @2 hour) [9] [%] | Papp B→A at 2 h, 10 μM [10] [×10⁻⁶ cm/s] | efflux ratio at 2 h, 10 μM [10] | Papp A→B at 2 h, 10 μM [10, 19] [×10⁻⁶ cm/s] | Papp A→B at 2 h, 10 μM [10, 20] [×10⁻⁶ cm/s] | 3A4* [11] | 3A4^ [11] | CD-1 Mouse (% Reamining @2 hour) [12] [%] | Human (% Reamining @1 hour) [13] [%] | Beagle Dog (% Reamining @1 hour) [14] [%] | activity at 0.01 µM [15] [%] | 2D6* [16] | CD-1 Mouse (% Reamining @1 hour) [17] [%] | other results |
| --- | --- | --- | --- | --- | --- | --- | --- | --- | --- | --- | --- | --- | --- | --- | --- | --- | --- | --- | --- | --- | --- |
| CNS(=O)(=O)Nc1cccc(Cc2c(CN3CCNCC3)c3ccc(OC(=O)N(C)C)cc3oc2=O)c1F [Compound 10] | 96.2 | 4.8 | > 30 | 0.4 | 22.4 | −1.0 | 1.8 | 92.1 | 3.8 | 56.3 | < 1 | 0.0676 | 17.3 | 16.2 | 97.7 | 80.1 | 73.9 | 27.7 | −3.4 | 91.3 | activity at 0.1 µM [6]: 42.2% |
| CNS(=O)(=O)Nc1cccc(Cc2c(CNC3CC3)c3ccc(OC(=O)N(C)C)cc3oc2=O)c1F [Compound 11] | 97.8 | 9.7 | 1.1 | 6.9 | 12.1 | 0.8 | 12.9 | 93.7 | 19.7 | 2.15 | > 1 | 9.18 | 36.1 | 44.8 | 81.4 | 28.9 | 4.9 |  | 9.8 | 7.0 |  |
| CNS(=O)(=O)Nc1cccc(Cc2c(CNc3ccn[nH]3)c3ccc(OC(=O)N(C)C)cc3oc2=O)c1F [Compound 12] | 102.6 | 16.0 | > 30 | 13.0 | 14.9 | 2.4 | 8.4 | 100.5 | 17.9 | 16.9 | > 1 | 1.06 | 29.2 | 31.9 | 86.6 | 32.9 | 42.8 |  | 4.5 | 28.2 |  |
| CNS(=O)(=O)Nc1cccc(Cc2c(CNCC#N)c3ccc(OC(=O)N(C)C)cc3oc2=O)c1F [Compound 13] | 95.9 | 6.2 | > 30 | 6.5 | 15.8 | 6.2 | −4.6 | 87.3 | 20 | 5.57 | > 1 | 3.59 | 25.7 | 34.9 | 87.1 | 57.7 | 69.6 |  | −2.6 | 16.8 | concentration at 2 h ([18]; liver, read-out: Liver): 36.6 ng/g; concentration at 2 h ([18]; tumor, read-out: Tumor): 26 ng/g; Muscle [18]: BQL; Plasma [18]: BQL |
| CNS(=O)(=O)Nc1cccc(Cc2c(CN3CCN(C)CC3)c3ccc(OC(=O)N(C)C)cc3oc2=O)c1F [Compound 15] | 89.1 | 4.3 | 6.5 | 7.8 | 16.3 | −16.9 | 3.0 | 98.1 | 34.9 | 29.3 | > 1 | 1.19 | 21.3 | 20.5 | 87.1 | 75.8 | 46.0 | 73.8 | 0.5 | 77.6 |  |
| CNS(=O)(=O)Nc1cccc(Cc2c(CN3CCN(Cc4ccccc4)CC3)c3ccc(OC(=O)N(C)C)cc3oc2=O)c1F [Compound 16] | 101.2 | 88.4 | 0.1 | 6.9 | 11.6 | 45.5 | 42.4 | 99.0 | 5.61 | 0.743 | > 1 | 7.55 | 75.1 | 92.1 | 92.7 | 1.4 | 0.4 | 91.6 | 55.0 | 0.6 |  |
| O=c1c(O)c(-c2ccc(O)c(O)c2)oc2cc(O)cc(O)c12 [Quercetin] |  |  |  |  |  | 93.1 |  |  |  |  |  |  |  |  |  |  |  |  |  |  |  |
| Nc1ccc(S(=O)(=O)Nc2ccnn2-c2ccccc2)cc1 [Sulfaphenazole] |  |  |  |  |  |  | 101.2 |  |  |  |  |  |  |  |  |  |  |  |  |  |  |
